According to ChEMBL document CHEMBL3785084, “Rational modification of the lead molecule: Enhancement in the anticancer and dihydrofolate reductase inhibitory activity” (Bioorg Med Chem Lett, 2016):

Tests used:
NCI-H226 = experiment: Cytotoxicity against human NCI-H226 cells assessed as cell growth at 10^-5 M after 48 hrs by sulforhodamine B assay; assay type: functional; settings: NCI-H226, 48 h, read-out: Activity
[1] = Cytotoxicity against human IGROV1 cells assessed as cell growth at 10^-5 M after 48 hrs by sulforhodamine B assay; assay type: functional; settings: IGROV-1, 48 h, read-out: Activity
Malme-3M = experiment: Cytotoxicity against human MALME-3M cells assessed as cell growth at 10^-5 M after 48 hrs by sulforhodamine B assay; assay type: functional; settings: read-out: Activity
HT-29 [2] = experiment: Cytotoxicity against human HT-29 cells assessed as cell growth at 10^-5 M after 48 hrs by sulforhodamine B assay; assay type: functional; settings: HT-29, 48 h, read-out: Activity
[3] = Cytotoxicity against human SF539 cells assessed as cell growth at 10^-5 M after 48 hrs by sulforhodamine B assay; assay type: functional; settings: SF-539, 48 h, read-out: Activity
[4] = Cytotoxicity against human LOXIMVI cells assessed as cell growth at 10^-5 M after 48 hrs by sulforhodamine B assay; assay type: functional; settings: LOX IMVI, read-out: Activity
CCRF-CEM = experiment: Cytotoxicity against human CCRF-CEM cells assessed as cell growth at 10^-5 M after 48 hrs by sulforhodamine B assay; assay type: functional; settings: read-out: Activity
NCI-H23 = experiment: Cytotoxicity against human NCI-H23 cells assessed as cell growth at 10^-5 M after 48 hrs by sulforhodamine B assay; assay type: functional; settings: NCI-H23, 48 h, read-out: Activity
[5] = Cytotoxicity against human Caki1 cells assessed as cell growth at 10^-5 M after 48 hrs by sulforhodamine B assay; assay type: functional; settings: CAKI-1, 48 h, read-out: Activity
[6] = Cytotoxicity against human MOLT4 cells assessed as cell growth at 10^-5 M after 48 hrs by sulforhodamine B assay; assay type: functional; settings: MOLT-4, 48 h, read-out: Activity
EKVX = experiment: Cytotoxicity against human EKVX cells assessed as cell growth at 10^-5 M after 48 hrs by sulforhodamine B assay; assay type: functional; settings: read-out: Activity
[7] = Cytotoxicity against human UACC62 cells assessed as cell growth at 10^-5 M after 48 hrs by sulforhodamine B assay; assay type: functional; settings: UACC-62, 48 h, read-out: Activity
MDA-MB-231 = experiment: Cytotoxicity against human MDA-MB-231 cells assessed as cell growth at 10^-5 M after 48 hrs by sulforhodamine B assay; assay type: functional; settings: MDA-MB-231, 48 h, read-out: Activity
[8] = Cytotoxicity against human OVCAR3 cells assessed as cell growth at 10^-5 M after 48 hrs by sulforhodamine B assay; assay type: functional; settings: OVCAR-3, 48 h, read-out: Activity
[9] = Cytotoxicity against human OVCAR4 cells assessed as cell growth at 10^-5 M after 48 hrs by sulforhodamine B assay; assay type: functional; settings: OVCAR-4, 48 h, read-out: Activity
[10] = Cytotoxicity against human Hs 578T cells assessed as cell growth at 10^-5 M after 48 hrs by sulforhodamine B assay; assay type: functional; settings: read-out: Activity
M14 = experiment: Cytotoxicity against human M14 cells assessed as cell growth at 10^-5 M after 48 hrs by sulforhodamine B assay; assay type: functional; settings: M14, 48 h, read-out: Activity
[11] = Cytotoxicity against human HOP92 cells assessed as cell growth at 10^-5 M after 48 hrs by sulforhodamine B assay; assay type: functional; settings: HOP-92, 48 h, read-out: Activity
[12] = Cytotoxicity against human PC3 cells assessed as cell growth at 10^-5 M after 48 hrs by sulforhodamine B assay; assay type: functional; settings: PC-3, 48 h, read-out: Activity
[13] = Cytotoxicity against human SNB19 cells assessed as cell growth at 10^-5 M after 48 hrs by sulforhodamine B assay; assay type: functional; settings: SNB-19, 48 h, read-out: Activity
[14] = Cytotoxicity against human UACC257 cells assessed as cell growth at 10^-5 M after 48 hrs by sulforhodamine B assay; assay type: functional; settings: UACC-257, 48 h, read-out: Activity
[15] = Cytotoxicity against human TK10 cells assessed as cell growth at 10^-5 M after 48 hrs by sulforhodamine B assay; assay type: functional; settings: TK-10, 48 h, read-out: Activity
cells [16] = settings: Homo sapiens, PC-3, 48 h
Description: Cytotoxicity against human PC3 cells after 48 hrs by sulforhodamine B assay

SR = experiment: Cytotoxicity against human SR cells after 48 hrs by sulforhodamine B assay; assay type: functional
HT-29 [17] = experiment: cells; settings: Homo sapiens, HT-29, 48 h
Description: Cytotoxicity against human HT-29 cells after 48 hrs by sulforhodamine B assay

T47D = experiment: cells; settings: Homo sapiens, 48 h
Description: Cytotoxicity against human T47D cells after 48 hrs by sulforhodamine B assay

cells [18] = settings: Homo sapiens, MOLT-4, 48 h
Description: Cytotoxicity against human MOLT4 cells after 48 hrs by sulforhodamine B assay

U-251 = experiment: cells; settings: Homo sapiens, U-251, 48 h
Description: Cytotoxicity against human U251 cells after 48 hrs by sulforhodamine B assay

cells [19] = settings: Homo sapiens, SF-539, 48 h
Description: Cytotoxicity against human SF539 cells after 48 hrs by sulforhodamine B assay

[20] = Cytotoxicity against human NCI-ADR-RES cells after 48 hrs by sulforhodamine B assay; assay type: functional
cells [21] = settings: Homo sapiens, HCC 2998, 48 h
Description: Cytotoxicity against human HCC2998 cells after 48 hrs by sulforhodamine B assay

A549 = experiment: cells; settings: Homo sapiens, A549, 48 h
Description: Cytotoxicity against human A549 cells after 48 hrs by sulforhodamine B assay

cells [22] = settings: Homo sapiens, UO-31, 48 h
Description: Cytotoxicity against human UO31 cells after 48 hrs by sulforhodamine B assay

SK-MEL-28 = experiment: cells; settings: Homo sapiens, SK-MEL-28, 48 h
Description: Cytotoxicity against human SK-MEL-28 cells after 48 hrs by sulforhodamine B assay

cells [23] = settings: Homo sapiens, OVCAR-8, 48 h
Description: Cytotoxicity against human OVCAR8 cells after 48 hrs by sulforhodamine B assay

cells [24] = settings: Homo sapiens, COLO 205, 48 h
Description: Cytotoxicity against human COLO205 cells after 48 hrs by sulforhodamine B assay

NCI-H460 = experiment: cells; settings: Homo sapiens, NCI-H460, 48 h
Description: Cytotoxicity against human NCI-H460 cells after 48 hrs by sulforhodamine B assay

cells [25] = settings: Homo sapiens, DU-145, 48 h
Description: Cytotoxicity against human DU145 cells after 48 hrs by sulforhodamine B assay

[26] = read-out: LC50 (the source's name)

CC1=NN(c2cccc(Cl)c2)C(=O)/C1=C\c1cn(CC(O)Cn2cc(/C=C3\C(=O)N(c4cccc(Cl)c4)N=C3C)c3ccccc32)c2ccccc12
growth at 10 µM (NCI-H226): 109%
growth at 10 µM [1]: 104%
growth at 10 µM (Malme-3M): 89.6%
growth at 10 µM (HT-29 [2]): 112%
growth at 10 µM [3]: 94.2%
growth at 10 µM [4]: 102%
growth at 10 µM (CCRF-CEM): 106%
growth at 10 µM (NCI-H23): 105%
growth at 10 µM [5]: 98.8%
growth at 10 µM [6]: 104%
growth at 10 µM (EKVX): 101%
growth at 10 µM [7]: 112%
growth at 10 µM (MDA-MB-231): 97.2%
growth at 10 µM [8]: 102%
growth at 10 µM [9]: 103%
growth at 10 µM [10]: 102%
growth at 10 µM (M14): 101%
growth at 10 µM [11]: 122%
growth at 10 µM [12]: 104%
growth at 10 µM [13]: 107%
growth at 10 µM [14]: 116%
growth at 10 µM [15]: 118%

CN1C(=O)C(=Cc2cn(CC(O)Cn3cc(C=C4C(=O)N(C)C(=O)N(C)C4=O)c4ccccc43)c3ccccc23)C(=O)N(C)C1=O
growth at 10 µM (NCI-H226): 86%
growth at 10 µM [1]: 78.8%
growth at 10 µM (Malme-3M): 87.7%
growth at 10 µM (HT-29 [2]): 112%
growth at 10 µM [3]: 103%
growth at 10 µM [4]: 97%
growth at 10 µM (CCRF-CEM): 98.3%
growth at 10 µM (NCI-H23): 87.9%
growth at 10 µM [5]: 90.8%
growth at 10 µM [6]: 106%
growth at 10 µM (EKVX): 91.7%
growth at 10 µM [7]: 88.3%
growth at 10 µM (MDA-MB-231): 78.3%
growth at 10 µM [8]: 95.2%
growth at 10 µM [9]: 97.2%
growth at 10 µM [10]: 97.3%
growth at 10 µM (M14): 89.7%
growth at 10 µM [11]: 80.4%
growth at 10 µM [12]: 79.6%
growth at 10 µM [13]: 102%
growth at 10 µM [14]: 127%
growth at 10 µM [15]: 117%

O=C1Nc2ccccc2/C1=C/c1cn(CC(O)Cn2cc(/C=C3\C(=O)Nc4ccccc43)c3ccccc32)c2ccccc12 (stereo not given)
growth at 10 µM (NCI-H226): -74.8%
GI50 (cells [16]): 1.2 µM
TGI (cells [16]): 2.6 µM
CC50 (cells [16]; read-out: LC50): 5.8 µM
growth at 10 µM [1]: -67.4%
GI50 (SR): 0.39 µM
CC50 (SR; [26]): > 100 µM
growth at 10 µM (Malme-3M): -76%
growth at 10 µM (HT-29 [2]): -20.2%
growth at 10 µM [3]: -77.7%
GI50 (HT-29 [17]): 1.4 µM
TGI (HT-29 [17]): 3.5 µM
CC50 (HT-29 [17]; read-out: LC50): 8.7 µM
GI50 (T47D): 1.6 µM
TGI (T47D): 3.8 µM
growth at 10 µM [4]: -84.5%
GI50 (cells [18]): 2.5 µM
TGI (cells [18]): 7.4 µM
CC50 (cells [18]; read-out: LC50): > 100 µM
growth at 10 µM (CCRF-CEM): -30.6%
growth at 10 µM (NCI-H23): -67.3%
growth at 10 µM [5]: 9.83%
growth at 10 µM [6]: -29.4%
growth at 10 µM (EKVX): -62.3%
growth at 10 µM [7]: -75.2%
growth at 10 µM (MDA-MB-231): -80%
GI50 (U-251): 1.5 µM
TGI (U-251): 2.9 µM
CC50 (U-251; read-out: LC50): 5.6 µM
GI50 (cells [19]): 1.5 µM
TGI (cells [19]): 3.1 µM
CC50 (cells [19]; read-out: LC50): 6.1 µM
growth at 10 µM [8]: -85.1%
GI50 [20]: 12 µM
TGI [20]: 54.5 µM
CC50 [20, 26]: > 100 µM
growth at 10 µM [9]: -51.7%
GI50 (cells [21]): 2.2 µM
TGI (cells [21]): 5.2 µM
CC50 (cells [21]; read-out: LC50): 17.3 µM
growth at 10 µM [10]: -22.2%
growth at 10 µM (M14): -81.4%
growth at 10 µM [11]: -73.9%
GI50 (A549): 1.5 µM
TGI (A549): 3.2 µM
CC50 (A549; read-out: LC50): 6.8 µM
GI50 (cells [22]): 1.2 µM
TGI (cells [22]): 2.9 µM
CC50 (cells [22]; read-out: LC50): 6.7 µM
GI50 (SK-MEL-28): 1.7 µM
TGI (SK-MEL-28): 3.5 µM
CC50 (SK-MEL-28; read-out: LC50): 6.9 µM
GI50 (cells [23]): 2.3 µM
TGI (cells [23]): 4.7 µM
GI50 (cells [24]): 1.6 µM
TGI (cells [24]): 3.6 µM
growth at 10 µM [12]: -86.3%
GI50 (NCI-H460): 0.48 µM
TGI (NCI-H460): 1.8 µM
CC50 (NCI-H460; read-out: LC50): 6.6 µM
GI50 (cells [25]): 1.5 µM
TGI (cells [25]): 2.9 µM
CC50 (cells [25]; read-out: LC50): 5.6 µM
growth at 10 µM [13]: -43%
growth at 10 µM [14]: -51%
growth at 10 µM [15]: -15.1%
